Legend:
kainate receptors = conditions: Narita et al. 1993; cited from earlier work
Arbor Acres broilers = experiment: Fattening of broilers with feed containing GABA (day 21 to day 41 after birth); assay type: in vivo; conditions: for increase in the body weight per 1 kg of feed during day 21 to day 41 after birth: compared to 0% group (p<0.05), FIG. 2; for increase in the body weight from day 21 to day 41 after birth: FIG. 1
[1] = test system: ventromedial nucleus of hypothalamus (VMH) of rat; conditions: VMH stimulated by water absorbent polymers, Yokawa et al. 1990; cited from earlier work

**Q.** Which “running activity in rat” value (kainate receptors) does the source give for `C=C(C)[C@H]1CN[C@H](C(=O)O)[C@H]1CC(=O)O` [kainate] here?
**A.** The value was “induced”.

**Q.** With `O=C1N=c2cc([N+](=O)[O-])c([N+](=O)[O-])cc2=NC1=O` [DNQX, 6,7-dinitroquinoxaline-2,3-dione] as the compound, how does the “inhibition of kainate-induced running activity in rat” value (kainate receptors) read?
**A.** The value was “inhibited”.

**Q.** With `NCCCC(=O)O` [GABA, γ-aminobutyric acid] as the compound, how does the “increase in the body weight per 1 kg of feed during day 21 to day 41 after birth” value (“increase in the body weight per 1 kg” for short) (Arbor Acres broilers; 0.5% GABA additive rate) read?
**A.** Its value is “significant increase”.

**Q.** What about the “increase in the body weight from day 21 to day 41 after birth” value (Arbor Acres broilers; 0.5% additive rate of GABA in feed) of the same compound?
**A.** The value was “tendency of increase was also observed at 0.5% but the significant difference was not clearly observed”.

**Q.** What about the “increase in the body weight per 1 kg” value (Arbor Acres broilers; 1% GABA additive rate) of the same compound?
**A.** Its value is “significant increase”.

**Q.** And the “increase in the body weight from day 21 to day 41 after birth” value (Arbor Acres broilers; 1% additive rate of GABA in feed)?
**A.** Its value is “maximum increase”.

**Q.** And the “increase in the body weight per 1 kg” value (Arbor Acres broilers; 3% GABA additive rate)?
**A.** Its value is “significant increase”.

**Q.** And the “induction of rat running activity caused by polymers” value [1]?
**A.** Its value is “inhibited”.

Reference: patent publication US20040219189A1 (priority 2001, published 2004)
